Results published in ChEMBL document CHEMBL5465560, “Selectivity Literature for EUbOPEN Chemogenomic Library” (2024).

Experiments:
[1] = target: SRSF protein kinase 3 (Homo sapiens) (UniProt Q9UPE1); experiment: Selectivity interaction (KinomeScan (DiscoverX)) EUB0001079a SRPK3; conditions: at 1 µM
[2] = target: Tyrosine-protein kinase JAK1 (Homo sapiens, UniProt P23458); experiment: Selectivity interaction (Kinase panel (Z-LYTE Assay)) EUB0001632a JAK1; conditions: at 10 µM
[3] = target: Serine/threonine-protein kinase SIK2 (Homo sapiens) (UniProt Q9H0K1); experiment: Selectivity interaction (KinomeScan (DiscoverX)) EUB0000666a SIK2; conditions: at 10 µM
[4] = target: Calcium/calmodulin-dependent protein kinase type 1G (Homo sapiens) (UniProt Q96NX5); experiment: Selectivity interaction (KinomeScan (DiscoverX)) EUB0000666a CAMK1G; conditions: at 10 µM
[5] = target: Tyrosine-protein kinase HCK (Homo sapiens) (UniProt P08631); experiment: Selectivity interaction (Kinase screening (Nanosyn)) EUB0000604a HCK
[6] = target: T1, Dual specificity mitogen-activated protein kinase kinase 6 (Homo sapiens) (UniProt P52564); experiment: Selectivity interaction (KinomeScan (DiscoverX)) EUB0000607a MAP2K6; conditions: at 10 µM
T1 sequence (whole entry): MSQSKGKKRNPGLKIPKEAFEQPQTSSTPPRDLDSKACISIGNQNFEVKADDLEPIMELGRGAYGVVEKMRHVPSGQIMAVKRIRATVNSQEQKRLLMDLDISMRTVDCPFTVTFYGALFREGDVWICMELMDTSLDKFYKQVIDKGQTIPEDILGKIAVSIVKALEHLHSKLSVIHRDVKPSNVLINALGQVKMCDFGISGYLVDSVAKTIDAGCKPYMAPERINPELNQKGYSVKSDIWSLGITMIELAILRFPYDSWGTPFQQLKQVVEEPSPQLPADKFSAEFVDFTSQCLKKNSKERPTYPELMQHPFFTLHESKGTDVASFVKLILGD

[7] = system: Tyrosine-protein kinase ABL1 (Homo sapiens), P00519 [E255K]; experiment: (§1) Selectivity interaction (SelectScreen profiling (Invitrogen)) EUB0000607a ABL1; conditions: at 2 µM
[8] = system: Tyrosine-protein kinase ABL1 (Homo sapiens), P00519 [T315I]; experiment: as §1; conditions: at 2 µM
[9] = target: Tyrosine-protein kinase ABL1 (Homo sapiens, UniProt P00519); experiment: as §1; conditions: at 2 µM
[10] = system: Tyrosine-protein kinase ABL1 (Homo sapiens), P00519 [G250E]; experiment: as §1; conditions: at 2 µM
[11] = system: Tyrosine-protein kinase ABL1 (Homo sapiens), P00519 [Y253F]; experiment: as §1; conditions: at 2 µM
[12] = target: T2, SNF-related serine/threonine-protein kinase (Homo sapiens) (UniProt Q9NRH2); experiment: Selectivity interaction (ActivX KiNativ screen (kinase selectivity in THP-1 cell lysates)) EUB0000639a SNRK; assay type: subcellular; conditions: lysate, at 0.2 µM
T2 sequence (whole entry): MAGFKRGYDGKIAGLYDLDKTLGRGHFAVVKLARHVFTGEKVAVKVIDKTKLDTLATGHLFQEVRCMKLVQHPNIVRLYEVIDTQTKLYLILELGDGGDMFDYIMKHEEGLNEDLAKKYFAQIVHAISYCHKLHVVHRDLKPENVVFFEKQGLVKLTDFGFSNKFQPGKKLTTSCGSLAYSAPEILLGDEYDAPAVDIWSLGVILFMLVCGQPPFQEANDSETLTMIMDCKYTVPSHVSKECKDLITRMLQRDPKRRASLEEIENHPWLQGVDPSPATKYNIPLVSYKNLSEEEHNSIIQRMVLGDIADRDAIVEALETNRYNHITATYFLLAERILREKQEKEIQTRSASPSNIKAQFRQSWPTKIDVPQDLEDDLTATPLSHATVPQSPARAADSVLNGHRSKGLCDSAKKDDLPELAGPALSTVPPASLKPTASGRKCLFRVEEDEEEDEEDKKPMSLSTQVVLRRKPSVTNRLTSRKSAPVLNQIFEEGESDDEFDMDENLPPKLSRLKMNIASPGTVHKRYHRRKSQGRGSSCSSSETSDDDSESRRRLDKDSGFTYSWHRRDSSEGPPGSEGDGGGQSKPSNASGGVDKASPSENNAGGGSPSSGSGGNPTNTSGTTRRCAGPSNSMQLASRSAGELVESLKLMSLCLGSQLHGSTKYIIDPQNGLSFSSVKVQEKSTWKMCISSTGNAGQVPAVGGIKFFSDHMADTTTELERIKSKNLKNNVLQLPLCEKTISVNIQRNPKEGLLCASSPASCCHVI

[13] = target: T3, Receptor-interacting serine/threonine-protein kinase 4 (Homo sapiens) (UniProt P57078); experiment: Selectivity interaction (KinomeScan (DiscoverX)) EUB0000092b RIPK4; conditions: at 10 µM
T3 sequence (whole entry): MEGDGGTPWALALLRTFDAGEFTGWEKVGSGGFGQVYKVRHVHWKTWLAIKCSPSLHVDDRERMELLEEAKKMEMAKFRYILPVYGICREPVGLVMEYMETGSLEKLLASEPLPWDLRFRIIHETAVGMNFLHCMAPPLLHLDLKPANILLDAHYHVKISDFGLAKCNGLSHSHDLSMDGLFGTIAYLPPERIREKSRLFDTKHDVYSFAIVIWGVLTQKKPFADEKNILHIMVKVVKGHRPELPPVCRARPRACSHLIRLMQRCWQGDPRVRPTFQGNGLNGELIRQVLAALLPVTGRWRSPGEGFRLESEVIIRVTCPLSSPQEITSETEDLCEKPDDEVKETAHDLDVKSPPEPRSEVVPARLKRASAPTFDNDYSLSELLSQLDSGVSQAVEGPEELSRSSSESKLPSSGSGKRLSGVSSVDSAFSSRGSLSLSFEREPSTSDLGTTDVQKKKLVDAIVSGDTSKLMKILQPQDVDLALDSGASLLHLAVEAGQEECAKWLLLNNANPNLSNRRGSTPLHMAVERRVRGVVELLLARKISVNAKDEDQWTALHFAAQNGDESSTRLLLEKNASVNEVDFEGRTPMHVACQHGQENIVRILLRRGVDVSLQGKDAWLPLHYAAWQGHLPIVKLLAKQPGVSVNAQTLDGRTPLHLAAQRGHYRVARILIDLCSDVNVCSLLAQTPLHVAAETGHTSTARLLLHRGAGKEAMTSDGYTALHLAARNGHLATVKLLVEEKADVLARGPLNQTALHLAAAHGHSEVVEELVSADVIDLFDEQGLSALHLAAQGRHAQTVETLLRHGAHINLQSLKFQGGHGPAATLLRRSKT

Sequence of Tyrosine-protein kinase JAK1 (P23458 whole entry): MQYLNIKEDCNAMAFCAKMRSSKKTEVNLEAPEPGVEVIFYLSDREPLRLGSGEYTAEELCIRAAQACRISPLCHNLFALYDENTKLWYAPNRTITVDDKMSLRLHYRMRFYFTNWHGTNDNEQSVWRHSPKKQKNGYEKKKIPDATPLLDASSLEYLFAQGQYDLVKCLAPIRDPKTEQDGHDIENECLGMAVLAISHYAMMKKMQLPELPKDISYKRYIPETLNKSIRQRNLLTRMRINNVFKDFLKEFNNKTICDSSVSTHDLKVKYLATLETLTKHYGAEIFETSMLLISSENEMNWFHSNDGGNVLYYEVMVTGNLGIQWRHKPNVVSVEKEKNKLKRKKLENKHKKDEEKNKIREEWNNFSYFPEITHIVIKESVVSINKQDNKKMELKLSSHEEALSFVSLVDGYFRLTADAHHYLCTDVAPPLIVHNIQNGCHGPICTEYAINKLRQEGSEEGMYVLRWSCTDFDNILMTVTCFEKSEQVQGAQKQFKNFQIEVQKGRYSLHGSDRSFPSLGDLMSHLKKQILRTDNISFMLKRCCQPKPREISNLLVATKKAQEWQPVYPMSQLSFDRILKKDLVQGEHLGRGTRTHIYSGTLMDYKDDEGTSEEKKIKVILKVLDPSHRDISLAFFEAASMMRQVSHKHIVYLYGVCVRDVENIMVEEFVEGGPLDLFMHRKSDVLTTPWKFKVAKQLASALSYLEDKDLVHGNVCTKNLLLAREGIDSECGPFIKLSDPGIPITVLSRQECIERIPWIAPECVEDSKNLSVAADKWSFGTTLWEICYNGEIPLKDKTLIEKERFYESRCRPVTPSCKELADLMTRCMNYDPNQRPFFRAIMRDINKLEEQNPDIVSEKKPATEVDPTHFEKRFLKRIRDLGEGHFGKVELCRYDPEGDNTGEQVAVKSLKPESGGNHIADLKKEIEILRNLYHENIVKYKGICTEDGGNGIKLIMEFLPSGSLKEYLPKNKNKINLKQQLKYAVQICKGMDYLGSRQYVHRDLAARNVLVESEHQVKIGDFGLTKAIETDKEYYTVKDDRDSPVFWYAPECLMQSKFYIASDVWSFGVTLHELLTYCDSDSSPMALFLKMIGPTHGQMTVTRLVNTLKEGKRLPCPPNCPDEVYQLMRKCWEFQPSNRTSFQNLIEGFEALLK
Sequence of SRSF protein kinase 3 (Homo sapiens) (Q9UPE1 whole entry): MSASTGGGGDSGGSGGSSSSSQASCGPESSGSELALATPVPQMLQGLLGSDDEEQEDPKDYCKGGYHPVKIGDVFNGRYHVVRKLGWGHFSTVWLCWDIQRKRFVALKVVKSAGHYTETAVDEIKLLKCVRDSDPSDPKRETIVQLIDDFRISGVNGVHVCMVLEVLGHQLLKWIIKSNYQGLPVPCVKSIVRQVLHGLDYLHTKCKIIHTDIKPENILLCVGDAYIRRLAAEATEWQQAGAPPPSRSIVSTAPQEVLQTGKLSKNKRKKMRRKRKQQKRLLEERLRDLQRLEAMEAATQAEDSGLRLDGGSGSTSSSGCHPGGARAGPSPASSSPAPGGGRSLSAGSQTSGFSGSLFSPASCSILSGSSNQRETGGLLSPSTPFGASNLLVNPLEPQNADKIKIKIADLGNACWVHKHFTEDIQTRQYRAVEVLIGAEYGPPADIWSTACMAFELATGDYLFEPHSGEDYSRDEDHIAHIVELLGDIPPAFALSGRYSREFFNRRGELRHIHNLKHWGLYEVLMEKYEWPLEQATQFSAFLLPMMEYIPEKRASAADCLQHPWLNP
Sequence of Calcium/calmodulin-dependent protein kinase type 1G (Homo sapiens) (Q96NX5 whole entry): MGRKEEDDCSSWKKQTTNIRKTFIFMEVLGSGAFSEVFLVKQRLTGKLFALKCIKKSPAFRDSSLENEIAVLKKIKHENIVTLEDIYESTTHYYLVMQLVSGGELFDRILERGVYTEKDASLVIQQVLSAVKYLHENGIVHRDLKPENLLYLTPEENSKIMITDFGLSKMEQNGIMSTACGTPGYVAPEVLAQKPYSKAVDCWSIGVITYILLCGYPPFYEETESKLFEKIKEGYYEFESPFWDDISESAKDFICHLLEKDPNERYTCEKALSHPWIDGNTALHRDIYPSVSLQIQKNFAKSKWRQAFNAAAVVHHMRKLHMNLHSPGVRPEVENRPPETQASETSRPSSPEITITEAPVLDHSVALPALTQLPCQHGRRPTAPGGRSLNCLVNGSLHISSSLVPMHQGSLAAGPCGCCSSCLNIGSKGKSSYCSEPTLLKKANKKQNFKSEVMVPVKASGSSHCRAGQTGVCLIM
Sequence of Serine/threonine-protein kinase SIK2 (Homo sapiens) (Q9H0K1 whole entry, looked up): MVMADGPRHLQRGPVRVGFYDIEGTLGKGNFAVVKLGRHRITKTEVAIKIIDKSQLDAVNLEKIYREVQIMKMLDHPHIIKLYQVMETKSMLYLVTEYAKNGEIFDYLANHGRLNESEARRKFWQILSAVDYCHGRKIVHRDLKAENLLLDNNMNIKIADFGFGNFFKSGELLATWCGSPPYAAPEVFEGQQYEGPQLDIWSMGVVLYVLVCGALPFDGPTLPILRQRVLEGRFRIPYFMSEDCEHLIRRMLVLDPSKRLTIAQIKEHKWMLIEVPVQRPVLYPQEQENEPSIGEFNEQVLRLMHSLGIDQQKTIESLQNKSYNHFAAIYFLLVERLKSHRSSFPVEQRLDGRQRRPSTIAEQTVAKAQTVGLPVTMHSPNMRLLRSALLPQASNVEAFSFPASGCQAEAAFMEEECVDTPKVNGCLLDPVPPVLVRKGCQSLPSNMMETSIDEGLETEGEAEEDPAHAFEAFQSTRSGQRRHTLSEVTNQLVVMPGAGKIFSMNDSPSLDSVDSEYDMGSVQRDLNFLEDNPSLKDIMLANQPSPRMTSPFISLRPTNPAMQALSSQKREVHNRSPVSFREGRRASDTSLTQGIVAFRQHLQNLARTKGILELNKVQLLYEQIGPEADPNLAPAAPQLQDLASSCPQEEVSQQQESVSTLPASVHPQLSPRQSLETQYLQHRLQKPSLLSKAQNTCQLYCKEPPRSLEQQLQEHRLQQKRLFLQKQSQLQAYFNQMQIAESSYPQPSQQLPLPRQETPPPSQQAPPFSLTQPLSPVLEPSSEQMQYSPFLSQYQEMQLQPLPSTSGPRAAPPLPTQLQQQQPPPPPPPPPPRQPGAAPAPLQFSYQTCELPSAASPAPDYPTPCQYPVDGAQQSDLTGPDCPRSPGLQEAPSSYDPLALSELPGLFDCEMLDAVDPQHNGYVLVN
Sequence of Tyrosine-protein kinase HCK (Homo sapiens) (P08631 2-526 limits assumed): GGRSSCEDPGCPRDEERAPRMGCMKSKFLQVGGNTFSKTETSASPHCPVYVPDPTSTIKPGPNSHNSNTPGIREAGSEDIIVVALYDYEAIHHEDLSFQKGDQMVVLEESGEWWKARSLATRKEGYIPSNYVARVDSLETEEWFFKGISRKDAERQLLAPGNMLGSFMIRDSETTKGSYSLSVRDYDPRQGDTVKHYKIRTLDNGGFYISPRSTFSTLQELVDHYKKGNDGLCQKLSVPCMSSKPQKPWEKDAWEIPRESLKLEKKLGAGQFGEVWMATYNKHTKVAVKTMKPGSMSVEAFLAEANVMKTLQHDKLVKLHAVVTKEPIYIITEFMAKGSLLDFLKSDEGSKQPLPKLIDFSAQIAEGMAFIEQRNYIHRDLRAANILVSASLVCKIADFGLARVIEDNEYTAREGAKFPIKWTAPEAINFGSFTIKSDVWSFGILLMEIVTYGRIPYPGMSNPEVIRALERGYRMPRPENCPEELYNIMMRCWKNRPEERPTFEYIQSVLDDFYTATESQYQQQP

Nc1cnc(N2CCc3cc(S(=O)(=O)Nc4c(F)cc(Cl)cc4F)cc(N4CCCC4=O)c32)nc1 [TP-020n]
% of control [1]: 100%

Cn1cc(-n2cnc3c(NCc4nc5cc(Cl)c(Cl)cc5[nH]4)nc(N4CCOCC4)nc32)cn1
% of control [2]: -3.66%

O=C(NOC[C@H](O)CO)c1ccc(F)c(F)c1Nc1ccc(I)cc1F
% of control [3]: 92%
% of control [4]: 100%

Cc1cnc(Nc2ccc(F)cc2Cl)nc1-c1c[nH]c(C(=O)N[C@H](CO)c2cccc(Cl)c2)c1
% of inhibition [5]: 3%

CNC(=O)Nc1ccc(-c2nc(N3CC4CCC(C3)O4)c3cnn(C4CCC5(CC4)OCCO5)c3n2)cc1
% of control [6]: 95%
% of inhibition [7]: 5%
% of inhibition [8]: 0%
% of inhibition [9]: 4%
% of inhibition [10]: 3%
% of inhibition [11]: 0%

CC[C@@H]1[C@H](F)C(=O)N[C@@H]1COc1nccc2cc(C(N)=O)c(OC)cc12 [ZIMLOVISERTIB]
% of inhibition [12]: 8.5%

CCC(=O)N1CCN(c2ccc(-n3c(=O)ccc4cnc5ccc(-c6cnc7ccccc7c6)cc5c43)cc2C(F)(F)F)CC1
% of control [13]: 100%
